Test results from patent US20040219217A1, “Conjugates of polysaccharide polymers of natural origin” (priority 2001, published 2004).

Key:
mite population = conditions: dust collected after two days, vs underivatized fabrics
Experimental: 8. Performance of anti-mite fabrics.
Cotton fibres conjugated to acaricides (as set out in the chemical experimental part above) were used for obtaining fabrics (woven and non-woven) used in turn for the manufacture of household articles (curtains, carpet floor and the like) placed in living environments. In particular, living environments (flats, apartments and houses) at the countryside at locations particularly exposed to dust and ventilation were chosen. Moreover, the tests were conducted during spring, which is the period with the highest mite contamination risk.
After two days of total exposure of the living environments to the open air, at the point in time zero, the dust was removed through vacuum cleaning and the presence and the status of the mite population contained therein was subjected to microscopic examination. Thereafter, some of the living environments, after appropriate randomization, were equipped with the fabrics according to the invention obtained from fibres conjugated to acaricides, thus making up a first test group. On the other hand, the remaining living environments were equipped with fabrics from customary cotton thereby making up a second test group as a control for the development of the mite population.
After another two days, the dust from both of the test groups was collected and the overall number of mites as well as the number of living mites was established.

[1] = test system: subcutaneous lipid deposit; test: experimental subcutaneous lipid deposit in rats; format: in vivo; conditions: abdominal tissue, gauze applied from the eighth day, after thirty days
Experimental: 7. Influence of the application of derivatized cotton fibres on experimental subcutaneous lipid deposit in rats.
The experiments were carried out on adult rats by injecting into their subcutaneous abdominal areas a lipid fraction rich in cholesterol (Sigma L 4646), and daily repeating the administrations until a stabilized subcutaneous lipid deposit is obtained; the fat mixture is injected in six adjacent sites in a volume of 0.2 ml/location for 7 days.
Then, from the eighth day on, cotton gauzes obtained from fibre derivatized with lipase (example II.F. above) are applied onto said areas in a perfectly adhering way.
After thirty days the animals are killed and the treated abdomen areas is taken. Aliquots of said area of about 2 g, precisely weighed, are homogenized in a Waring blender and the lipid content is extracted by adding aliquots of ethyl ether under strong stirring: three extractions with 20 ml of solvent each.
The ether fractions are mixed and concentrated in a rotary evaporator until dryness.
The concentration/g of extracted lipid tissue is determined by weighing said extracts.

Candida albicans = test: plate culture growth under derivatized cotton gauze; format: cell-based; conditions: C. albicans, 24 hours at 37° C., vs normal growth conditions
From the text: (§1) 2. Evaluation of the influence of cotton derivatized with germicides, with anti-bacterial or anti-fungi agents in the development and amount of microorganic flora.
(§2) The influence of suitably derivatized cotton fibre on the development of microorganic flora has been determined “in vitro” on plate growing cultures of various micro-organisms: Candida albicans, Escherichia coli, Staphylococcus aureus isolated and characterized by contaminated organic material.
(§3) To this purpose growth selective mediums are prepared (sabouraud agar for fungi and nutrient agar for bacteria) with which Petri dishes are prepared.
(§4) On the medium surface the microorganism culture is applied by deposition of one ml of a suspension of said microorganism containing 10^9 microorganisms, lightly agitating so as to cover the whole plate surface.
(§5) A cotton gauze obtained from fibre derivatized with the various substances taken into consideration is then applied onto the surface; the whole is then placed in a thermostat at 37° C.
(§6) After 24 hours the gauze is removed and the developed colonies are compared with plates in normal growth conditions.
(§7) The reduction in percentage of the growth in the plates characterized by conjugated gauze is evaluated with respect to normal growth conditions.

Escherichia coli = test: as above; format: cell-based; conditions: E. coli, 24 hours at 37° C., vs normal growth conditions
From the text: as §1, §2, §3, §4, §5, §6, §7

Staphylococcus aureus = test: as above; format: cell-based; conditions: S. aureus, 24 hours at 37° C., vs normal growth conditions
From the text: as §1, §2, §3, §4, §5, §6, §7

[2] = in vitro cleavage of the conjugation in artificial sweat; format: physicochemical; conditions: 18 h hydrolysis, skin's usual pH, 37° C.
Experimental: In the following table 2, different chemical conjugations contemplated by the present invention have been tested for in vitro cleavage under conditions simulating the topical application of the polysaccharide polymers of the present invention to the skin. In particular, for evaluating the biodegradability of a given chemical conjugation established between cotton and an active substance, the conjugate is subjected to hydrolysis at the skin's usual pH at 37° C. under mild agitation in the presence of an enzymatic mixture known as “artificial sweat”. After the pre-established time period of contact with the hydrolysis medium, the same was analyzed for the active substances or their fragments contained therein. The examples as listed below were chosen on the following grounds: […]

[3] = test system: granuloma from cotton pellets; test: induction of granuloma from cotton pellets; format: in vivo; conditions: rats, subcutaneous cotton pellet 1 g, after fifteen days, vs simple cotton
From the text: 3. Influence of fibre derivatized with anti-inflammatories or with immunostimulating agents on the phlogogenic process.
The experiments have been carried out on rats through the test of induction of granuloma from “cotton pellets”.
According to this test cotton pellets having a pre-established weight (1 g) and shape are introduced into the subcutaneous region of the subaxillary area of the animals using a cannula which can pierce the skin and the sub-skin (the scar is closed again with a suture stitch).
Around the cotton pellet a “granuloma” collagen deposit is formed, whose entity is proportional to the phlogogenic process.
After fifteen days from the operation the granuloma is taken from the animal under anesthesia and it is weighed to determine its entity.
In the present case the cotton used as a base for the implantation of the granuloma consists of: […]

UV-induced edema in skin = test: UV-induced edema (erythema) in rats' skin; format: in vivo; conditions: daily application, vs animals with no application
Experimental: 6. Influence of the application of derivatized cotton fibres on UV-induced edema in rats' skin.
Adult rats are depilated on their backs and are then exposed to UV radiations until a consistent skin edema forms.
The exposition is carried out only on pre-established circular areas using suitable pierced masks.
Then normal cotton gauzes (controls) or gauzes obtained from fibre derivatized with a medicament are applied with a good adherence onto the inflamed areas. Simultaneously another group of animals is tested to check the effectiveness of the application of the same medicaments in form of 5% gel.
The regression of the erythema defined as the reduction of the entity and surface of the reddening area is controlled daily with respect to control animals with no application, and immediately afterwards the medicament is applied again in the various forms.
On the 5th day the average extension of the erythema surface is measured and its reduction in percentage with respect to the animals with no application is calculated.

[4] = test system: experimental sclerosis in femoral veins; test: experimental sclerosis in rabbits' femoral veins; format: in vivo; conditions: rabbit femoral vein, carbon tetrachloride as sclerotizing agent, gauze bandage, after ten days
Experimental: 4. Influence of the application of derivatized cotton fibres on the entity of experimental sclerosis in rabbits' femoral veins.
After a suitable depilation a rabbit's femoral vein is closed for a length of about 5 cm by means of suture stitches downstream and upstream.
Within the separated area 0.05 ml of carbon tetrachloride in 10% solution (Fluka 87031) is added as sclerotizing agent.
The area is suitably bandaged with normal cotton gauzes (control) or derivatized gauzes so that they perfectly adhere to the treated area.
After ten days the vein fragments undergoing stasis are taken and controlled with a microscope to check the parietal state and the consistency of the sclerotizing deposits.
It is thus possible to observe how the application in the area receiving layers of derivatized cotton gauzes with: […]

cotton-CH═N-lys-NH—CO-PABA-benzylbenzoate [III.B.2.1.1.]
Decrease (%) of total living mite population (mite population): 58%

cotton-CH2—NH-lys-NH—CO-PABA-benzyl benzoate [III.B.2.1.2.]
Decrease (%) of total living mite population (mite population): 59%

cotton-S—S—CH2—CH(NH—CO-lipase)-CO—NH-lipase
lower lipid content than the controls [1]: 45%

cotton-CH═N-gramicidin
% reduction in the development of colonies (Candida albicans): 65% | % reduction in the development of colonies (Escherichia coli): 80% | % reduction in the development of colonies (Staphylococcus aureus): 90%

cotton-CH═N-polylys-(NH—CO-PABA-benzylbenzoate)n [III.B.2.2.1.]
Decrease (%) of total living mite population (mite population): 94%

cotton-CH2—NH-lys-NH—CH2-Ph-OH
% reduction in the development of colonies (Candida albicans): 75% | % reduction in the development of colonies (Escherichia coli): 85% | % reduction in the development of colonies (Staphylococcus aureus): 85% | % of released active principle [2]: 1.2%

cotton-CH═N-bacitracin
% reduction in the development of colonies (Candida albicans): 65% | % reduction in the development of colonies (Escherichia coli): 75% | % reduction in the development of colonies (Staphylococcus aureus): 95%

cotton-S-S-cys-PABA-hydrocortisone
% reduction in the weight of the granuloma [3]: 55.0% | % reduction of the erythema extension with respect to controls on the 5th day after the induction (UV-induced edema in skin): 60.0%

cotton-S-S-cys-polylys-naproxen
% reduction in the weight of the granuloma [3]: 64.0%

cotton-S—S-IgG [Cotton/IgG]
% of released active principle [2]: 40.8%

cotton-S-S-cys-polylys-(PABA-hydrocortisone)n
% reduction in the weight of the granuloma [3]: 90.0% | % reduction of the erythema extension with respect to controls on the 5th day after the induction (UV-induced edema in skin): 95%

cotton-S—S—CH2—CH(COOH)—NH—CO-naproxen
% reduction in the weight of the granuloma [3]: 30.0%

cotton-CH2—NH-polylys-(NH—CO-PABA-benzylbenzoate)n [III.B.2.2.2.]
Decrease (%) of total living mite population (mite population): 100%

cotton-S—S—CH2—CH(COOH)—N═CH-heparin
tissue sclerotic state [4]: reduce the tissue sclerotic state to a consistent extent | % of released active principle [2]: 50.4%

cotton-CH═N-procaine [Cotton/procaine]
% of released active principle [2]: 76.3%
